Measurements published in publication PMC7486443, “Generation of Phenothiazine with Potent Anti-TLK1 Activity for Prostate Cancer Therapy” (iScience, 2020).

Experiments:
Test in all cases: biochemical
Set-up in all cases: DiscoverX KINOMEscan scanMAX competition binding panel, single concentration, percent of control; remaining binding: dose or concentration left out as unconfirmed
Conditions in all cases: KINOMEscan binding, percent of control; read-out: Table S4_SCANMAX REPORT - related to Fig. 1 / Percent Control
PIK3CA(C420R) = PIK3CA(C420R) (Homo sapiens, UniProt P42336, C420R)
PKNB(M.tuberculosis) = PKNB(M.tuberculosis) (Mycobacterium tuberculosis, UniProt P9WI81)
Chain of PKNB(M.tuberculosis) (P9WI81 whole entry): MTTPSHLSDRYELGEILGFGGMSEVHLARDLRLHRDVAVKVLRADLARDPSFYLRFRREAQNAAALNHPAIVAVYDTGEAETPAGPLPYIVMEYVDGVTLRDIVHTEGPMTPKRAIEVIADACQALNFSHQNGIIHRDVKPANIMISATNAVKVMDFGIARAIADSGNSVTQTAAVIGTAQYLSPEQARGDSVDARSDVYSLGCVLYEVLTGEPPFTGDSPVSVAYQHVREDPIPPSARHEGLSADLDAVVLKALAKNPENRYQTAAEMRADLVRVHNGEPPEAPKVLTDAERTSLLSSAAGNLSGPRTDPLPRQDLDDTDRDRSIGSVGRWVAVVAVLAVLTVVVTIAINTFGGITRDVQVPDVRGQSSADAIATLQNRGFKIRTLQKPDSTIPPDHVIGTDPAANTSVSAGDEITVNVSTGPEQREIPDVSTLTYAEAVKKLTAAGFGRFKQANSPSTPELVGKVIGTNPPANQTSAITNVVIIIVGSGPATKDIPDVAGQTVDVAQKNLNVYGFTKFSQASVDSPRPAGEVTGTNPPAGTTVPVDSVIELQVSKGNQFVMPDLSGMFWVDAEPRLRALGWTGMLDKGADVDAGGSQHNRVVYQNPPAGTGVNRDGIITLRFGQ

PIK3C2G = PIK3C2G (Homo sapiens, UniProt O75747)
Chain of PIK3C2G (O75747 whole entry): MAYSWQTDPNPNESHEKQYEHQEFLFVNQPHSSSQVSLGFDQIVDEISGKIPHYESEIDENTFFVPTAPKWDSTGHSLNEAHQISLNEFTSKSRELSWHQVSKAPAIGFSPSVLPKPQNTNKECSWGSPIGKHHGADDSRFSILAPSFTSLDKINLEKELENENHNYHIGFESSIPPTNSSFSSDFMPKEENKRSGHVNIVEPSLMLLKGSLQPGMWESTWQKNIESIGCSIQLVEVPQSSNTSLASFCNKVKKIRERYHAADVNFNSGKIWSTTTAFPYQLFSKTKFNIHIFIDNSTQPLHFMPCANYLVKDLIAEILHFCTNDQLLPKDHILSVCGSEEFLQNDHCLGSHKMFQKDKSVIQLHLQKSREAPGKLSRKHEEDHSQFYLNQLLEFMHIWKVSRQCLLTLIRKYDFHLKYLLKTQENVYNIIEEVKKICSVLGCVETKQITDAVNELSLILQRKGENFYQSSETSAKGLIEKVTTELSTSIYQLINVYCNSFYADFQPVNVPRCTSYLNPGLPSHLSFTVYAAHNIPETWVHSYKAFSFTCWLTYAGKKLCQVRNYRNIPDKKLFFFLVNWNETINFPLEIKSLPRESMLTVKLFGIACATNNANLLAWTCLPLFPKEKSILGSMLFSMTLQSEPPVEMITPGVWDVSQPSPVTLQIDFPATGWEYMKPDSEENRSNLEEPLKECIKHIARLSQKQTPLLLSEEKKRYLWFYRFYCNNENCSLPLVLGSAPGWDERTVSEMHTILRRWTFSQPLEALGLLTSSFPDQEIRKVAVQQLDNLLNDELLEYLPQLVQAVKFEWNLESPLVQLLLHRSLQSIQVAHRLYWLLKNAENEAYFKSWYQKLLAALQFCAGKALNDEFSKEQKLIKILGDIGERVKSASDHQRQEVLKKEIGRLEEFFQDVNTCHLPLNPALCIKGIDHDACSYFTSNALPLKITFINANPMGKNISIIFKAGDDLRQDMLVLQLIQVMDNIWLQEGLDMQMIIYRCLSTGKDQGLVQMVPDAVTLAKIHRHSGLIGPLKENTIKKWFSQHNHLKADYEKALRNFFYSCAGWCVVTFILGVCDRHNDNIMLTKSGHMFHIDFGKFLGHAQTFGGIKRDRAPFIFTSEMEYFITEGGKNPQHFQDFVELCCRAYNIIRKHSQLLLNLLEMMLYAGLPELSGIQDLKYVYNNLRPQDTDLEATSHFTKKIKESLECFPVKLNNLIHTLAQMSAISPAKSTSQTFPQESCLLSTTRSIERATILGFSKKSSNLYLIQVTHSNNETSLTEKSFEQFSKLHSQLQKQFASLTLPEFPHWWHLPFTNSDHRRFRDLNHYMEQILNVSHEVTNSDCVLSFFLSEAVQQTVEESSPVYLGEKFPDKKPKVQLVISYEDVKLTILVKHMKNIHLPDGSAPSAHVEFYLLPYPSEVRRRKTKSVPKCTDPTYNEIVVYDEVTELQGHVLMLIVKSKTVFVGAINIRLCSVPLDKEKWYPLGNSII

MAP4K5 = MAP4K5 (Homo sapiens, UniProt Q9Y4K4)
Chain of MAP4K5 (Q9Y4K4 whole entry): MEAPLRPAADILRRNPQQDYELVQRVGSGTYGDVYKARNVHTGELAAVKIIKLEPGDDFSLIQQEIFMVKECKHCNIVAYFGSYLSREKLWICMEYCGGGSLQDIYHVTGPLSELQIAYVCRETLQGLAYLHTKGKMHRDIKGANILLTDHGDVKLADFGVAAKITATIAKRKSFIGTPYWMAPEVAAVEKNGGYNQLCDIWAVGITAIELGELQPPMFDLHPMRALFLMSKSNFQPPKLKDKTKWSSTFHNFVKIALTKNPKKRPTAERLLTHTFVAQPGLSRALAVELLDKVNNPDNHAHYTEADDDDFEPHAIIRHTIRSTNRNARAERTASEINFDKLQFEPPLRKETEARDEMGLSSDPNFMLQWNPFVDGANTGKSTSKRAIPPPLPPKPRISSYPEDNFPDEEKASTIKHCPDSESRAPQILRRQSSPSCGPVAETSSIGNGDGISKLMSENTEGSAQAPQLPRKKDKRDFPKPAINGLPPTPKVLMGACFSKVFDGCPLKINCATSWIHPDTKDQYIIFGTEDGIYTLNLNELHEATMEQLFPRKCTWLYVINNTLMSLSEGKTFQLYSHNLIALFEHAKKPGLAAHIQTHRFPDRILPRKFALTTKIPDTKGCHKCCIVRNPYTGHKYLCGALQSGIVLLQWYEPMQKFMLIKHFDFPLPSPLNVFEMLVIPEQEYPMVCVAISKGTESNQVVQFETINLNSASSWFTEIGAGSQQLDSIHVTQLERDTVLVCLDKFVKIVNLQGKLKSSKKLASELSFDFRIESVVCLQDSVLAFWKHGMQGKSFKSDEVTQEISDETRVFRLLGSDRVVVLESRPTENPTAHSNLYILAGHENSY

SIK = target: T1, SIK (Homo sapiens, UniProt P57059)
T1 construct: gene SIK1

CSK = CSK (Homo sapiens, UniProt P41240)
CSNK2A2 = CSNK2A2 (Homo sapiens, UniProt P19784)
LYN = LYN (Homo sapiens, UniProt P07948)
ASK1 = target: T2, ASK1 (Homo sapiens, UniProt Q99683)
T2 construct: gene MAP3K5

MST1 = target: T3, MST1 (Homo sapiens, UniProt Q13043)
T3 construct: gene STK4
T3 sequence (Q13043 whole entry): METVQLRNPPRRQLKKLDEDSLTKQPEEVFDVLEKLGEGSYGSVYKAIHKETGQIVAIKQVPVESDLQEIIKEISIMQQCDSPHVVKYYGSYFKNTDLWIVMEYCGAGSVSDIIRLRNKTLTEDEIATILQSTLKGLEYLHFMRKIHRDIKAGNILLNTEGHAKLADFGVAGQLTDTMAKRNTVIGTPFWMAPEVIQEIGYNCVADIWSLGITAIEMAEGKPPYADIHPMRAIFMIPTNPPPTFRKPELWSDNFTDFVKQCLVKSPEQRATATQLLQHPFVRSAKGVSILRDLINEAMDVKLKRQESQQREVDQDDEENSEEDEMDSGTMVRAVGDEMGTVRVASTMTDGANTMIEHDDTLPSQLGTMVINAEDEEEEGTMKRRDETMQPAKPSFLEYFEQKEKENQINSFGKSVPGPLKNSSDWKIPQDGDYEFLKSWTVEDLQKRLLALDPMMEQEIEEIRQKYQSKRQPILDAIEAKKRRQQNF

BRK = target: T4, BRK (Homo sapiens, UniProt Q13882)
T4 construct: gene PTK6
T4 sequence (Q13882 whole entry): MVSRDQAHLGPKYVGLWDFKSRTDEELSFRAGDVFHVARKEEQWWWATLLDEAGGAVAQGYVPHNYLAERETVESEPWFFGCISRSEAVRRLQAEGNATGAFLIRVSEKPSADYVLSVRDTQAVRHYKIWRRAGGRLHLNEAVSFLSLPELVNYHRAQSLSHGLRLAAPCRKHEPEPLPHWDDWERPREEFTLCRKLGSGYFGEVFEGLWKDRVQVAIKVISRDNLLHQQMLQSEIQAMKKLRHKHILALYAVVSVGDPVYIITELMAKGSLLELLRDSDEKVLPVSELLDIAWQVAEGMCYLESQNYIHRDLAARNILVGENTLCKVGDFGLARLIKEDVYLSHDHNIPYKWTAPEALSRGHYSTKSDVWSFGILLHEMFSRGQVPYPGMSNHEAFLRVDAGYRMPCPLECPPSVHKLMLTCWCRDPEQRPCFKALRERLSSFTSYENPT

PRP4 = target: T5, PRP4 (Homo sapiens, UniProt Q13523)
T5 construct: gene PRPF4B

[1] = target: T6, JAK2(JH1domain-catalytic) (Homo sapiens, UniProt O60674)
T6 construct: JH1domain-catalytic

IGF1R = IGF1R (Homo sapiens, UniProt P08069)
DAPK2 = DAPK2 (Homo sapiens, UniProt Q9UIK4)
Chain of DAPK2 (Q9UIK4 whole entry): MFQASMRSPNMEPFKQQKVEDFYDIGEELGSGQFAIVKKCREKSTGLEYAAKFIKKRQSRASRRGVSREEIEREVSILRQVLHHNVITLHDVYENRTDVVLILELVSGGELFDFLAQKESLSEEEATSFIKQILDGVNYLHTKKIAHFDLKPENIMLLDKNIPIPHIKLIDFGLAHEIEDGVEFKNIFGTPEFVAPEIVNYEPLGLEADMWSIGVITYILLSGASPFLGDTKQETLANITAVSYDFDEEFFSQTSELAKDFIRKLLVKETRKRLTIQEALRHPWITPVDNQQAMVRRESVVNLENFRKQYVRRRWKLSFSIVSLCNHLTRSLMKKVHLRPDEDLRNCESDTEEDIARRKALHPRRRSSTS

GRK3 = GRK3 (Homo sapiens, UniProt P35626)
PAK6 = PAK6 (Homo sapiens, UniProt Q9NQU5)
Chain of PAK6 (Q9NQU5 whole entry): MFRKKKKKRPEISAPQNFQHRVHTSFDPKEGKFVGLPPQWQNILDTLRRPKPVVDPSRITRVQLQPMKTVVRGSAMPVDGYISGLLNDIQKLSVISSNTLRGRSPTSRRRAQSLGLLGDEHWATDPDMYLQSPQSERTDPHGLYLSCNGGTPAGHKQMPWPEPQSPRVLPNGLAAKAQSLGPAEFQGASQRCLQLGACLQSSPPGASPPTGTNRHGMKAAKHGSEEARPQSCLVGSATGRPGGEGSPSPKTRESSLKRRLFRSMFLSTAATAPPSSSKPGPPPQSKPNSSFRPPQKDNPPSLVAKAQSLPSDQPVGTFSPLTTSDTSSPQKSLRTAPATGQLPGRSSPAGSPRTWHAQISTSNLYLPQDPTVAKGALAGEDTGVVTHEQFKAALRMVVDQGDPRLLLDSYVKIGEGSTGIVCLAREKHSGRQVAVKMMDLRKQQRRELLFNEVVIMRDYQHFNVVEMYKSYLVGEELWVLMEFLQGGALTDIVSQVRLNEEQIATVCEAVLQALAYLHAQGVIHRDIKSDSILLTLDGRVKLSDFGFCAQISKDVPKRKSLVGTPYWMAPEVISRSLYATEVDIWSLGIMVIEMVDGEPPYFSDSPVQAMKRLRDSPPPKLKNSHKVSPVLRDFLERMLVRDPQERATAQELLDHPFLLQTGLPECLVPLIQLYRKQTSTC

[2] = target: T7, ABL1(T315I)-nonphosphorylated (Homo sapiens, UniProt P00519, T315I)
T7 construct: nonphosphorylated

Structure (SMILES): c1ccc2c(c1)Sc1ccccc1N2CCN1CCOCC1 [J54]
- remaining binding (PIK3CA(C420R)): 88%
- remaining binding (PKNB(M.tuberculosis)): 87%
- remaining binding (PIK3C2G): 74%
- remaining binding (MAP4K5): 68%
- remaining binding (SIK): 91%
- remaining binding (CSK): 100%
- remaining binding (CSNK2A2): 77%
- remaining binding (LYN): 98%
- remaining binding (ASK1): 98%
- remaining binding (MST1): 100%
- remaining binding (BRK): 100%
- remaining binding (PRP4): 74%
- remaining binding [1]: 95%
- remaining binding (IGF1R): 56%
- remaining binding (DAPK2): 97%
- remaining binding (GRK3): 93%
- remaining binding (PAK6): 100%
- remaining binding [2]: 94%
